For data set [1] the following is noted: cited from earlier work.
For data set [2] the following is noted: crystalline form, cited from earlier work.
For data set [3] the following is noted: cited from earlier work. The source holds these as a separate data set.
Data set [4] has as its system laser-induced choroidal neovascularization (CNV). Kind of data set: Fundus fluorescein angiography (FFA) in laser-induced CNV mouse model. The format is in vivo, C57 BL/6 mice. The conditions noted are these: intravitreal injection 2 μl per eyeball, 14 days after laser injury, vs PBS.
The next data set relates to function of the retina. More on the design: species or system C57 BL/6 mice. Particulars: mouse, in vivo. As for the experimental part:
5) After C57 BL/6 mice (Orient Bio, Korea) were acclimatized to be adapted to the environment for 1 week, 7-week old mice were treated with the image-guided laser (Phoenix, USA) especially optic nerve area at 3, 6, 9, and 12 o'clock positions. The laser was irradiated at 532 nm, 100 ms/70 ms, 200 mW, and a spot size was 50 μm.
The mice were dark adapted for 24 hours before test and all tests were performed in a darkroom. The eyes of mice were dilated and general anesthetized by intraperitoneal injection with a mixture of ketamine (30 mg/kg) and xylazine hydrochloride (2.5 mg/kg) in order to detect the function of the retina. Electrodes were placed in skin, tail and cornea to run electroretinography. […] The amplitude from the trough of A-wave to the peak of B-wave was measured and evaluated as an index of the function of the retina. […]
FIG. 9A-FIG. 9F are the test results that measured the response degree of retina to the white light after dark adaptation of group with intravitreal injection at day 15 after laser injury.
The dose of each individual was calculated based on the body weight measured immediately prior to administration and then orally administered using a disposable syringe equipped with sonde. […]
FIG. 14A-FIG. 14E are the test results that measured the response degree of retina to the white light after dark adaptation of group with oral administration at day 14 after laser injury.

Data set [5] has as its system laser-induced choroidal neovascularization (CNV). Nature of the data set: Optical coherence tomography (OCT) in laser-induced CNV mouse model. The format is in vivo, C57 BL/6 mice. The conditions noted are these: intravitreal injection, day 14 after laser injury, vs PBS.
In data set [6] the test system is vascular endothelial growth factor (VEGF). Kind of data set: Western blot analysis of VEGF expression in the choroid and the retina. Particulars: intravitreal administration, day 15 after laser injury. The format is in vivo, C57 BL/6 mice. On the technique in general: Immunoblotting shows a protein as a band on a membrane.
The conditions of data set [7]: DMSO/PBS (pH 7.2) solution; cited from earlier work.
Data set [8] has as its system wet (age-related) macular degeneration. Particulars: in vivo; cited from earlier work.

“Also recorded” adds a separate entry of the source. Where two headings read alike, the source gives them in different places.

Regarding `C[C@H](CCC(=O)O)[C@H]1CC[C@H]2[C@@H]3[C@@H](O)C[C@@H]4C[C@H](O)CC[C@]4(C)[C@H]3CC[C@]12C` [UDCA, ursodeoxycholic acid], the solubility in water in data set [1] is 20 µg/mL; in data set [1] (protonated form), 53 µM. Moreover, the “acid dissociation constant, pKa” value in data set [2] was “about 5.0”; in data set [2] (listed as ursodeoxycholic acid), 5.1. The “absorbed at the ileum of the colon by the active transport mechanism” value in [3] (oral tablet or capsule, crystalline form) is recorded as “up to 20 % of intakes”. For the same molecule, the “absorbed along the jejunum and ileum by nonionic passive diffusion” value in data set [3] (oral tablet or capsule) is reported as 30-60%. In data set [3] (taken orally), the “absorbed to the liver through the small intestine” value is on record as at least 95%.

For the molecule “Eylea®: conventional VEGF antibody drug, positive control, intravitreal injection”, in data set [4], the “choroidal neovascularization (FFA, corrected total fluorescence)” value is recorded as “statistically significantly inhibited”. In the data set on function of the retina, the ERG response result is “increased”. Besides, the “size of CNV lesions (OCT)” value in data set [5] is “statistically significantly inhibited”. The “expression of VEGF in the choroid and the retina” value in [6] is on record as “decreased; also recorded: less compared to that of YSB201”.

As for `C[C@H](CCC(=O)NCCS(=O)(=O)O)[C@H]1CC[C@H]2[C@@H]3[C@@H](O)C[C@@H]4C[C@H](O)CC[C@]4(C)[C@H]3CC[C@]12C` [tUDCA, tauroursodeoxycholic acid], the solubility in water in [1] is 200 µg/mL. In data set [1] (first dissolved in DMSO, then mixed with PBS (pH 7.2) 1:4), the solubility entry is “up to 200 mg/l”. Moreover, in data set [2], the “pH (strong acidity)” value was at most 1. The “time the stability of the solution can be maintained” value in data set [7] is reported as “about 1 day”.

B1: Lucentis®: antibody drug inhibiting the activity of VEGF, intravitreal injection once every four weeks (antibody, chains of the INN, looked up, V domains shown)
VH: EVQLVESGGGLVQPGGSLRLSCAASGYDFTHYGMNWVRQAPGKGLEWVGWINTYTGEPTYAADFKRRFTFSLDTSKSTAYLQMNSLRAEDTAVYYCAKYPYYYGTSHWYFDVWGQGTLVTVSS
VL: DIQLTQSPSSLSASVGDRVTITCSASQDISNYLNWYQQKPGKAPKVLIYFTSSLHSGVPSRFSGSGSGTDFTLTISSLQPEDFATYYCQQYSTVPWTFGQGTKVEIK
modifications: Fab
Turning to B1, in [8], the vision improvement rate was 40% and the vision maintenance effect was 90%.

These data come from patent US20210252022A1, “COMPOSITION FOR THE PREVENTION OR THE TREATMENT OF VISUAL IMPAIRMENTS COMPRISING URSODEOXYCHOLIC ACID” (AMICOGEN PHARMA INC., priority 2017, published 2021).
